Key:
Assay type in all cases: in vivo
[1] = test system: morningglory (Ipomoea spp.); assay: Test A pre-/postemergence greenhouse herbicide test; settings: 0 to 100 scale (0 no effect, 100 complete control), approx. 10 d
Outline: (§1)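 Seeds sown in loam–sand blend received a directed preemergence soil spray; postemergence spray was applied at the same time to plants 2–10 cm tall at one- to two-leaf stage. Compounds were in non-phytotoxic solvent with surfactant. Visual injury versus untreated controls after ~10 d in greenhouse, 0–100 scale (100 = complete control).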

[2] = test system: velvetleaf (Abutilon theophrasti); assay: as above; settings: 0 to 100 scale (0 no effect, 100 complete control), approx. 10 d
Outline: as §1

corn (Zea mays) = assay: as above; settings: 0 to 100 scale (0 no effect, 100 complete control), approx. 10 d
Outline: as §1

[3] = test system: pigweed (Amaranthus retroflexus); assay: as above; settings: 0 to 100 scale (0 no effect, 100 complete control), approx. 10 d
Outline: as §1

[4] = test system: foxtail, giant (giant foxtail, Setaria faberii); assay: as above; settings: 0 to 100 scale (0 no effect, 100 complete control), approx. 10 d
Outline: as §1

[5] = test system: crabgrass, Large (large crabgrass, Digitaria sanguinalis); assay: as above; settings: 0 to 100 scale (0 no effect, 100 complete control), approx. 10 d
Outline: as §1

[6] = test system: wheat (Triticum aestivum); assay: as above; settings: 0 to 100 scale (0 no effect, 100 complete control), approx. 10 d
Outline: as §1

[7] = test system: barnyardgrass (Echinochloa crus-galli); assay: as above; settings: 0 to 100 scale (0 no effect, 100 complete control), approx. 10 d
Outline: as §1

[8] = test system: ducksalad (Heteranthera limosa); assay: Test B flooded paddy test; settings: Flood, 125 g ai/ha; scale of 0 to 100, 0 is no effect, 100 is complete control; 13 to 15 d
Outline: (§2)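 Plants were raised to the 2-leaf stage, then pots were flooded to 3 cm above the soil and the test compound was applied directly into the paddy water, with that depth held throughout. After 13 to 15 d in a greenhouse, injury was rated visually against untreated controls on a 0–100 scale (0 = no effect, 100 = complete control).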

[9] = test system: sedge, umbrella (small-flower umbrella sedge, Cyperus difformis); assay: Test B flooded paddy test; settings: Flood, 125 g ai/ha; scale of 0 to 100, 0 is no effect, 100 is complete control; 13 to 15 d
Outline: as §2

rice (Oryza sativa) = assay: Test B flooded paddy test; settings: Flood, 125 g ai/ha; scale of 0 to 100, 0 is no effect, 100 is complete control; 13 to 15 d
Outline: as §2

[10] = test system: barnyardgrass (Echinochloa crus-galli); assay: Test B flooded paddy test; settings: Flood, 125 g ai/ha; scale of 0 to 100, 0 is no effect, 100 is complete control; 13 to 15 d
Outline: as §2

| Compound | Plant response rating, Morningglory ([1]; Postemergence, 125 g ai/ha) | Plant response rating, Morningglory ([1]; Postemergence, 500 g ai/ha) | Plant response rating, Morningglory ([1]; Preemergence, 125 g ai/ha) | Plant response rating, Morningglory ([1]; Preemergence, 500 g ai/ha) | Plant response rating, Velvetleaf ([2]; Postemergence, 125 g ai/ha) | Plant response rating, Velvetleaf ([2]; Postemergence, 500 g ai/ha) | Plant response rating, Velvetleaf ([2]; Preemergence, 125 g ai/ha) | Plant response rating, Velvetleaf ([2]; Preemergence, 500 g ai/ha) | Plant response rating, Corn (corn (Zea mays); Postemergence, 125 g ai/ha) | Plant response rating, Corn (corn (Zea mays); Postemergence, 500 g ai/ha) | Plant response rating, Corn (corn (Zea mays); Preemergence, 125 g ai/ha) | Plant response rating, Corn (corn (Zea mays); Preemergence, 500 g ai/ha) | Plant response rating, Pigweed ([3]; Postemergence, 125 g ai/ha) | Plant response rating, Pigweed ([3]; Postemergence, 500 g ai/ha) | Plant response rating, Pigweed ([3]; Preemergence, 125 g ai/ha) | Plant response rating, Pigweed ([3]; Preemergence, 500 g ai/ha) | Plant response rating, Foxtail, Giant ([4]; Postemergence, 125 g ai/ha) | Plant response rating, Foxtail, Giant ([4]; Postemergence, 500 g ai/ha) | Plant response rating, Foxtail, Giant ([4]; Preemergence, 125 g ai/ha) | Plant response rating, Foxtail, Giant ([4]; Preemergence, 500 g ai/ha) | other results |
| --- | --- | --- | --- | --- | --- | --- | --- | --- | --- | --- | --- | --- | --- | --- | --- | --- | --- | --- | --- | --- | --- |
| CN(C)c1cc(=O)n(-c2ccc(C(F)(F)F)cc2)nc1Cc1ccnc(C(F)(F)F)c1 [Compound 21] | 30 | 60 | 0 | 10 | 60 | 80 | 0 | 20 | 20 | 40 | 0 | 0 | 90 | 90 | 100 | 100 | 30 | 50 | 30 | 70 | Plant response rating, Crabgrass, Large ([5]; Postemergence, 125 g ai/ha): 20; Plant response rating, Crabgrass, Large ([5]; Postemergence, 500 g ai/ha): 60; Plant response rating, Crabgrass, Large ([5]; Preemergence, 125 g ai/ha): 80; Plant response rating, Crabgrass, Large ([5]; Preemergence, 500 g ai/ha): 100; Plant response rating, Wheat ([6]; Postemergence, 125 g ai/ha): 20; Plant response rating, Wheat ([6]; Postemergence, 500 g ai/ha): 30; Plant response rating, Wheat ([6]; Preemergence, 125 g ai/ha): 0; Plant response rating, Wheat ([6]; Preemergence, 500 g ai/ha): 10; Plant response rating, Barnyardgrass ([7]; Postemergence, 125 g ai/ha): 40; Plant response rating, Barnyardgrass ([7]; Postemergence, 500 g ai/ha): 50; Plant response rating, Barnyardgrass ([7]; Preemergence, 125 g ai/ha): 10; Plant response rating, Barnyardgrass ([7]; Preemergence, 500 g ai/ha): 30; Plant response rating, Ducksalad [8]: 0; Plant response rating, Sedge, Umbrella [9]: 90; Plant response rating, Rice (rice (Oryza sativa)): 0; Plant response rating, Barnyardgrass [10]: 0 |
| CCCc1cc(=O)n(-c2ccc(F)cc2)nc1Cc1ccnc(C(F)(F)F)c1 [Compound 24] | 50 | 90 | 30 | 80 | 80 | 80 | 30 | 80 | 50 | 60 | 30 | 50 | 100 | 100 | 100 | 100 | 70 | 80 | 100 | 100 | Plant response rating, Crabgrass, Large ([5]; Postemergence, 125 g ai/ha): 70; Plant response rating, Crabgrass, Large ([5]; Postemergence, 500 g ai/ha): 90; Plant response rating, Crabgrass, Large ([5]; Preemergence, 125 g ai/ha): 100; Plant response rating, Crabgrass, Large ([5]; Preemergence, 500 g ai/ha): 100; Plant response rating, Wheat ([6]; Postemergence, 125 g ai/ha): 50; Plant response rating, Wheat ([6]; Postemergence, 500 g ai/ha): 70; Plant response rating, Wheat ([6]; Preemergence, 125 g ai/ha): 30; Plant response rating, Wheat ([6]; Preemergence, 500 g ai/ha): 50; Plant response rating, Barnyardgrass ([7]; Postemergence, 125 g ai/ha): 70; Plant response rating, Barnyardgrass ([7]; Postemergence, 500 g ai/ha): 90; Plant response rating, Barnyardgrass ([7]; Preemergence, 125 g ai/ha): 70; Plant response rating, Barnyardgrass ([7]; Preemergence, 500 g ai/ha): 100; Plant response rating, Ducksalad [8]: 30; Plant response rating, Sedge, Umbrella [9]: 90; Plant response rating, Rice (rice (Oryza sativa)): 20; Plant response rating, Barnyardgrass [10]: 0 |

From patent US10202361B2, “Pyridazinones as herbicides” (E I DU PONT DE NEMOURS AND COMPANY, priority 2014, dated 2019)
